Laboratory results taken from patent US9255073B2, “1-benzyl-3-hydroxymethylindazole derivatives and use thereof in the treatment of diseases based on the expression of MCP-1, CX3CR1 and p40” (AZIENDE CHIM. RIUN. ANG. FRANC. A.C.R.A.F. S.p.A., priority 2008, dated 2016).
Where a name gives a salt, the structure may show the parent alone.

Experiments:
MCP-1 [1] = assay: Production of MCP-1 protein by LPS-stimulated MonoMac6 cells (ELISA); format: cell-based; settings: Homo sapiens, MONO-MAC-6, MonoMac6, 1 h preincubation, LPS 100 ng/ml 20 h, ELISA of supernatant; for inhibition at 150 µM: 150 μM (maximum soluble concentration); for inhibition at 30 µM: 30 μM (maximum soluble concentration); for inhibition at 75 µM: 75 μM (maximum soluble concentration)
Description: (§1) The capacity of the compounds to inhibit the expression of the protein MCP-1 by lipopolysaccharide (LPS)-stimulated MonoMac6 cells was evaluated. The cells were placed in 96-well plates at a concentration of 50 000 cells/well. The compounds were tested at the maximum soluble concentration given in Table 2 (in the range 30-300 μM) and incubated for 1 hour. The cells were then stimulated with LPS (100 ng/ml) for 20 hours.
The amount of MCP-1 produced was measured in the supernatants, suitably diluted with buffer, by means of an immunoenzymatic test (ELISA) using a commercial kit (ELISA MCP-1/JE, R&D Systems).

CX3CR1 = assay: Gene expression of CX3CR1 in LPS-stimulated MonoMac6 cells (real-time RT-PCR); format: cell-based, human; settings: MonoMac6, 1 h preincubation, LPS 100 ng/ml 20 h
Description: as §1, with “of CX3CR1” for “of the protein MCP-1”, “Table 3” for “Table 2”
(§2) The total RNA was extracted from the cell pellet using the RNeasy mini kit (Qiagen), reverse-transcribed with the TaqMan Reverse transcription reagents synthesis kit (Applied Biosystems) and the cDNA obtained was used for the real-time PCR reaction. The amplification was obtained in 96-well plates using the ABI Prism 7000 sequence detection system (Applied Biosystems), by applying the following temperature profile: 50° C. for 2 minutes, 95° C. for 10 minutes and 45 cycles at 95° C. for 15 seconds and 60° C. for 1 minute. For the amplification, a set of primers and probe specific for human CX3CR1 was used (Applied Biosystems, RefSeq NM_001337.3). A set of primers and probe for β-actin was used in separate wells as an internal control of the samples for the purposes of normalization. Once the reaction had taken place, the fluorescence data were analysed using the ABI Prism 7000 SDS software, by calculating the threshold cycle (Ct) for each sample and subsequently performing a relative quantification via the ΔΔCt method.

MCP-1 [2] = assay: Gene expression of MCP-1 in LPS-stimulated MonoMac6 cells (real-time RT-PCR); format: cell-based, human; settings: MonoMac6, 1 h preincubation, LPS 100 ng/ml 4 h
Description: as §1, with “of” for “of the protein”, “1” for “2”, “4” for “20”
as §2, with “MCP-1” for “CX3CR1”, “NM_002982.3).” for “NM_001337.3).”

p40 = assay: Gene expression of p40 in LPS-stimulated MonoMac6 cells (real-time RT-PCR); format: cell-based, human; settings: MonoMac6, 1 h preincubation, LPS 100 ng/ml 4 h
Description: as §1, with “p40” for “the protein MCP-1”, “4” for “2”, “4” for “20”
as §2, with “p40” for “CX3CR1”, “NM_002187.2).” for “NM_001337.3).”

[3] = 300 μM (maximum soluble concentration)
[4] = 150 μM (maximum soluble concentration)
[5] = 30 μM (maximum soluble concentration)

Structure (SMILES): OCCOCc1nn(Cc2ccccc2)c2ccccc12 [Compound 13, 2-[(1-benzyl-1H-indazol-3-yl)methoxy]ethanol]
- inhibition at 300 µM (MCP-1 [1]; [3]): 78%
- melting point: 67 to 69 °C
- % inhibition of CX3CR1 expression (mRNA) (CX3CR1; [3]): 90%
- % inhibition of MCP-1 expression (mRNA) (MCP-1 [2]; [3]): 55%

Structure (SMILES): COc1ccc(Cn2nc(CO)c3ccccc32)cc1 [Compound 2, [1-(4-methoxybenzyl)-1H-indazol-3-yl]methanol]
- melting point: 95 to 97 °C

Structure (SMILES): CC(C)(CO)OCc1nn(Cc2ccccc2)c2ccccc12 [Compound 17, 2-[(1-benzyl-1H-indazol-3-yl)methoxy]-2-methylpropan-1-ol]
- inhibition at 150 µM (MCP-1 [1]): 82%
- melting point: 52 to 53 °C
- % inhibition of CX3CR1 expression (mRNA) (CX3CR1; [4]): 88%
- % inhibition of p40 expression (mRNA) (p40; [4]): 37%
- % inhibition of MCP-1 expression (mRNA) (MCP-1 [2]; [4]): 53%

Structure (SMILES): OCc1nn(Cc2ccc(Cl)cc2Cl)c2ccccc12 [Compound 6, [1-(2,4-dichlorobenzyl)-1H-indazol-3-yl]methanol]
- inhibition at 30 µM (MCP-1 [1]): 54%

Structure (SMILES): OCc1nn(Cc2ccccc2)c2ccccc12 [Compound 1, 1-benzyl-3-hydroxymethyl-indazole]
- inhibition at 150 µM (MCP-1 [1]): 54%
- % inhibition of CX3CR1 expression (mRNA) (CX3CR1; [4]): 72%
- % inhibition of p40 expression (mRNA) (p40; [4]): 32%
- % inhibition of MCP-1 expression (mRNA) (MCP-1 [2]; [4]): 30%

Structure (SMILES): OCc1nn(Cc2ccc(Cl)cc2)c2ccccc12 [Compound 4, [1-(4-chlorobenzyl)-1H-indazol-3-yl]methanol]
- inhibition at 75 µM (MCP-1 [1]): 85%

Structure (SMILES): Cc1cc(Cl)ccc1Cn1nc(CO)c2ccccc21 [Compound 8, [1-(4-chloro-2-methylbenzyl)-1H-indazol-3-yl]methanol]
- inhibition at 30 µM (MCP-1 [1]): 75%

Structure (SMILES): COc1ccc2c(c1)c(CO)nn2Cc1ccccc1 [Compound 9, (1-benzyl-5-methoxy-1H-indazol-3-yl)methanol]
- melting point: 97 to 98 °C

Structure (SMILES): CN(C)CCOCc1nn(Cc2ccccc2)c2ccccc12.Cl [Compound 14, 2-[(1-benzyl-1H-indazol-3-yl)methoxy]-N,N-dimethylethanamine hydrochloride]
- inhibition at 150 µM (MCP-1 [1]): 64%
- % inhibition of CX3CR1 expression (mRNA) (CX3CR1; [4]): 96%
- % inhibition of MCP-1 expression (mRNA) (MCP-1 [2]; [4]): 52%

Structure (SMILES): CN(C)CCCOCc1nn(Cc2ccccc2)c2ccccc12 [Compound 15, 3-[(1-benzyl-1H-indazol-3-yl)methoxy]-N,N-dimethylpropan-1-amine hydrochloride]
- inhibition at 75 µM (MCP-1 [1]): 44%

Structure (SMILES): Cc1cc(Cl)ccc1Cn1nc(C(C)(C)O)c2ccccc21 [Compound 10, 2-[1-(4-chloro-2-methylbenzyl)-1H-indazol-3-yl]propan-2-ol]
- inhibition at 30 µM (MCP-1 [1]): 81%
- melting point: 72 to 74 °C
- % inhibition of CX3CR1 expression (mRNA) (CX3CR1; [5]): 89%
- % inhibition of p40 expression (mRNA) (p40; [5]): 65%
- % inhibition of MCP-1 expression (mRNA) (MCP-1 [2]; [5]): 72%

Structure (SMILES): CC(C)(CN1CCOCC1)OCc1nn(Cc2ccccc2)c2ccccc12.O=C(O)/C=C\C(=O)O [Compound 18, 1-benzyl-3-[(1,1-dimethyl-2-morpholin-4-ylethoxy)methyl]-1H-indazole maleate]
- inhibition at 75 µM (MCP-1 [1]): 85%
- melting point: 87 to 88 °C
- % inhibition of p40 expression (mRNA) (p40; 75 μM (maximum soluble concentration)): 39%

Structure (SMILES): CC(C)(O)c1nn(Cc2ccc(Cl)cc2Cl)c2ccccc12 [Compound 11, 2-[1-(2,4-dichlorobenzyl)-1H-indazol-3-yl]propan-2-ol]
- inhibition at 30 µM (MCP-1 [1]): 88%

Structure (SMILES): Cc1cc(Cl)ccc1Cn1nc(C(C)O)c2ccccc21 (centres unmarked) [Compound 12, 1-[1-(4-chloro-2-methylbenzyl)-1H-indazol-3-yl]ethanol]
- inhibition at 30 µM (MCP-1 [1]): 76%
